Legend:
[1] = Fluorescence spectra / optical properties; format: physicochemical; set-up: key to Brightness: ++++: very bright; +++: bright; ++: moderate brightness; +: weak; conditions: for Brightness / λem (emission wavelength) / λex (excitation wavelength): Table 4
Method: (§1) Computations. In vitro fluorescence quenching studies were carried out at peak excitation and emission wavelengths. Microliter aliquots of the sodium salt of the quenching anion (1 M) were added to indicator solution in 5 mM sodium phosphate (pH 7.2, unless indicated otherwise). Fluorescence intensities in the absence (Fo) and presence (F) of quencher anion ([Q]) were measured to give the Stem-Volmer constant (Kq) as defined by:
Fluorescence spectra reveal that LZQ and LMQ have broad excitation and emission peaks with maxima at 424 and 528 nm, respectively. The molar extinction coefficient of LZQ was 11,100 M^-1 cm^-1 at 424 nm and the quantum yield in the absence of I^- was 0.53. Stem-Volmer plots for quenching of LZQ and LMQ by I^- and Cl^-, with data for SPQ shown for comparison, were generated. In water (or saline), LZQ fluorescence was quenched by I^- with a Stem-Volmer constant of 60 M^-1. LZQ fluorescence was not quenched (Stem-Volmer constant <1 M^-1) by Cl^-, NO3^-, phosphate, acetate, Na^+ and K^+. LZQ fluorescence and I^- sensitivity were not affected by pH changes in the range 4.5-8.

[2] = In vitro fluorescence quenching by I^- (Stern-Volmer); format: physicochemical; conditions: Table 4
Method: as §1, with “by: Fo /F=1+Kq [Q].” for “by:”

[3] = test system: CFTR; conditions: cited from earlier work; for correction of CF phenotype (chemical chaperones): Swiss 3T3, Brown et al., 1996
[4] = test system: cells; test: Photobleaching in cells; format: cell-based; conditions: Table 4
Method: (§2) Fluorescence microscopy. Fluorescence microscopy measurements were performed as described previously (Chao et al., 1989). Briefly, coverglasses were mounted in a 0.5 ml perfusion chamber in which the cell-free glass surface made contact with an oil immersion objective (Nikon ×40 magnification, numerical aperture[NA] 1.3). Cell fluorescence was excited at 365±10 nm (SPQ) or 420 nm±10 nm (LZQ and LMQ). Emitted fluorescence was detected by a photomultiplier in a Nikon inverted epifluorescence microscope using a 410 nm dichroic mirror and 420 nm barrier filter (SPQ) or a 455 nm dichroic mirror and 500 nm barrier filter (LZQ). For cells colabeled with SPQ and LZQ, SPQ fluorescence was excited at 365±10 nm and detected using a 410 nm dichroic mirror and 455±30 nm interference filter. Confocal fluorescence micrographs were obtained using a Nipkow wheel confocal microscope and cooled CCD camera detector using a ×60 oil immersion objective (Nikon, NA 1.4). LZQ-labeled cells were viewed using a fluorescein filter set (excitation 480±15 nm, emission 520±20 nm).
(§3) A time course of LZQ fluorescence during perfusion with physiological saline at 23° C. was generated. A small group of 20-30 cells was illuminated continuously and fluorescence was detected by a photomultiplier using an ×40, 1.3 NA objective. Cellular fluorescence decreased slowly at a rate of 2.5% per hour. To determine the relative contributions of indicator leakage vs. photobleaching to the slow decline in fluorescence, the perfused cells were illuminated intermittently. […] Background fluorescence (in non-labeled cells) was generally <5% of the fluorescence of LZQ-labeled cells.

[5] = test system: cells; test: Indicator leakage / cytoplasmic retention; format: cell-based; conditions: Table 4
Method: as §2, §3

[6] = test system: cells; test: Toxicity in assays of cell growth; format: cell-based; conditions: 2 mM in culture medium for 72 h
Method: (§4) LZQ and LMQ were loaded into cells efficiently by hypotonic shock or passive incubation. […] As was found for SPQ, LZQ and LMQ were non-toxic to cells in assays of cell growth (2 mM in culture medium for 72 h).

[7] = test system: cells; test: Cell loading and intracellular distribution (fluorescence/confocal microscopy); format: cell-based; conditions: for Cellular properties: staining/distribution: Table 4
Method: as §2
Transport measurements. Cells were labeled with LZQ or SPQ by hypotonic shock (loading buffer/water 1:1 containing 2 mM LZQ or 7.5 mM SPQ) for 5 min at room temperature or by overnight incubation with indicators in the cell culture medium. Extracellular indicator was removed by washing just prior to measurements. For fluorescence microscopy, glass coverslips were then mounted in a perfusion chamber (flow ~2 ml/min) in which solutions were exchanged using a 4-way valve. For microplate reader measurements, cells in 96-well plates were bathed in […] of the `1st buffer` (see Table 3) and […] of the Cl^- -containing, I^- -free solution was injected into the well to drive Cl^- /I^- exchange (protocol 1). For stimulation of CFTR using protocol 2, […] of a 1:8 mixture of the 1st buffer and the 2nd buffer containing […] forskolin, 2 mM CPT-cAMP and […] IBMX was added.
as §4

[8] = test system: cells; test: Response of intracellular fluorescence to osmotically-induced changes in cell volume; format: cell-based
Method: as §2
The similar LZQ lifetime in cells and water predicts that LZQ fluorescence should be relatively insensitive to cell volume in the absence of I^-. […] When cells were exposed to hypoosmotic medium (225 mOsm), SPQ fluorescence increased by 15±2%, whereas LZQ fluorescence increased by only 4±1%.

[9] = test system: CFTR-expressing fibroblasts and T84 cells; test: Cl^-/I^- exchange by LZQ fluorescence, CFTR-expressing cells; format: cell-based; conditions: solution Cl^- replaced by I^-
Method: as §2, with “LZQ-labeled cells were viewed using a fluorescein filter set (excitation 480±15 nm, emission 520±20 nm).” left out
(§5) Transport measurements. […] For fluorescence microscopy, glass coverslips were then mounted in a perfusion chamber (flow ~2 ml/min) in which solutions were exchanged using a 4-way valve. For microplate reader measurements, cells in 96-well plates were bathed in […] of the `1st buffer` (see Table 3) and […] of the Cl^- -containing, I^- -free solution was injected into the well to drive Cl^- /I^- exchange (protocol 1). […]

[10] = test system: control fibroblasts; test: Cl^-/I^- exchange by LZQ fluorescence, control cells; format: cell-based; conditions: solution Cl^- replaced by I^-
Method: as §2, with “LZQ-labeled cells were viewed using a fluorescein filter set (excitation 480±15 nm, emission 520±20 nm).” left out
as §5

Row | Brightness [1] | λem (emission wavelength) [1] [nm] | λex (excitation wavelength) [1] [nm] | Compound | Ksv (I^-), Stern Volmer quenching constant [2] [M⁻¹] | further results
1 | +++ | 530 | 424 | Nc1ncnc2c1nc([O-])c1cccc[n+]12 [II] | 70 | emission maximum [1]: 528 nm; excitation maximum [1]: 424 nm; Cellular properties: photobleaching [4]: slow photobleaching; Cellular properties: leakage rate [5]: moderate; toxicity to cells (cell growth) [6]: non-toxic; Cellular properties: staining/distribution [7]: staining uniform; loading into cells ([7]; hypotonic shock or passive incubation): efficiently
2 | ++++ | 520 | 440 | Cc1cc2cc3cc(C)c(N)cc3[n+](C)c2cc1N [IX, 10-methyl acridinium yellow] | 90 | Cellular properties: photobleaching [4]: very rapid
3 | +++ | 585 | 571 | O=c1ccc2nc3ccc(O)cc3oc-2c1 [VIII, resorufin, reference compound] | 76 | 
4 | ++++ | 550 | 440 | CN(C)c1ccc2cc3ccc(N(C)C)cc3[n+](C)c2c1 [X, 10-methyl acridinium orange] | 30 | Cellular properties: photobleaching [4]: very rapid
5 | +++ | 457 | 422 | Nc1c2ccccc2[n+](CCCS(=O)(=O)[O-])c2ccccc12 [XII, 9-amino-10-(3-sulfopropys) acridinium] | 253 | Cellular properties: photobleaching [4]: rapid; Cellular properties: staining/distribution [7]: nuclear staining
6 | ++ | 586 | 520 | Nc1ccc2nc3ccc(N)cc3[n+](-c3ccccc3)c2c1 [XIII, phenosafranine, reference compound] | 33 | 
7 | ++++ | 530 | 505 | rhodamine green [IV, reference compound] | 30 | 

Further lines, the compound ahead of its results:

Row | Compound | Brightness [1] | λem (emission wavelength) [1] [nm] | λex (excitation wavelength) [1] [nm] | Ksv (I^-), Stern Volmer quenching constant [2] [M⁻¹] | further results
8 | C[n+]1c(-c2ccccc2)ccc2cc3ccc(-c4ccccc4)nc3cc21 [Compound VII, 1-methyl-2,7-diphenylpyrido-[3,2,g]quinolinium] | +++ | 515 | 405 | 46 | 
9 | [2H]O[2H] [D2 O] |  |  |  |  | correction of CF phenotype (chemical chaperones) [3]: corrected the CF phenotype
10 | NCCCNCCCCNC(=O)C(O)NC(=O)CCCCCCN=C(N)N (centres unmarked) [Deoxyspergualin] |  |  |  |  | restoration of Cl transport ([3]; C127-CFTR, JME/CF15, IBE-1, Jiang et al., 1998): partially restored
11 | CC(C)Cn1c(=O)n(C)c(=O)c2[nH]cnc21 [IBMX, 3-isobutyl-1-methylxanthine] |  |  |  |  | effect of increased [IBMX] on ΔF508 response ([3]; L cells, Yang et al., 1993): improved
12 | N=c1ccc2c(-c3ccccc3C(=O)O)c3ccc(N)cc3oc-2c1 [III, rhodamine-110, reference compound] | ++++ | 520 | 496 | 40 | 
13 | COc1ccc2c(ccc[n+]2CCCS(=O)(=O)[O-])c1 [SPQ, 6-methoxy-N-[3-sulfopropyl]quinolinium, reference compound] |  |  |  |  | fluorescence increase upon exposure to hypoosmotic medium ([8]; 225 mOsm): 15±2%; fluorescence decrease upon exposure to hyperosmotic medium ([8]; 600 mOsm, absence of Cl^-, S.E., n=3): 30±2%; toxicity to cells (cell growth) [6]: non-toxic
14 | C[N+](C)(C)[O-] [TMAO] |  |  |  |  | correction of CF phenotype (chemical chaperones) [3]: corrected the CF phenotype
15 | C=C[C@@]1(C)CC(=O)[C@]2(O)[C@@]3(C)[C@@H](O)CCC(C)(C)[C@@H]3[C@H](O)[C@H](OC(C)=O)[C@@]2(C)O1 [forskolin] |  |  |  |  | forskolin-stimulated change in LZQ fluorescence [9]: rapid decrease in LZQ fluorescence; forskolin-stimulated decrease in LZQ fluorescence, control [10]: not in control fibroblasts
16 | OCC(O)CO [glycerol] |  |  |  |  | correction of CF phenotype (chemical chaperones) [3]: corrected the CF phenotype
17 | CCCC(=O)[O-].[Na+] [sodium butyrate] |  |  |  |  | Cl transport, overexpression of ΔF508 ([3]; CFPAC-1, JME/CF15, 1° culture, Cheng et al., 1995): resulted in detectable Cl
18 | CFTR protein: purified CFTR protein |  |  |  |  | Cl transport after transfer of purified protein ([3]; CHO-CFTR, FRT-CFTR, LLCPK1, Marshall et al., 1994): induced Cl transport
